Data published in the supplement of paper PMC11208160.

Assay: recombinant UMI read abundance after kanamycin selection (control-corrected) (log10(CPM+1)); higher = more efficient recombination; extreme values may be limits of the assay; sequences stand for … in AGTGCAGAGAAAATCGGCCAGTTTTCTCTGCCTGCAGTCCGCATGCCGTGGGACCCCTTGGGTTCTAACCTGTTGCCTAGATTTATGCAGCGGACTGCCTTTCTCCCAAAGTGATAAACCGG…AGGTTGGTTTCACT; site = the 11-nt donor
Summary of the method: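 Values are reported as log10(CPM+1), obtained by converting sequencing counts to CPM, averaging replicates and scaling by control-derived factors. The counts came from recombinant UMIs amplified by PCR across the donor–target junction. These UMIs came from a pooled Escherichia coli screen of donor and donor-binding-loop pairs for the IS621 bridge recombinase, plated with IPTG (0.07 mM) plus kanamycin or left unselected, in two replicates each.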
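Also: IS621 bridge recombinase in Escherichia coli cells against a fixed T5 target plasmid.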

Row | Sequence | recombinant UMI read abundance (log10)
1 | GGGCCACCATGGACCGGTTTTCCCGGTAATCCGTATTTGCA (site GGGTCACCTTG) | 0.00812
2 | GGGCCTACATGGACCGGTTTTCCCGGTAATCCGTATTTGCT (site GGGCCTACTAG) | 1.86
3 | GGGCCTGCATGGACCGGTTTTCCCGGTAATCCGTATTTGTG (site GGGCCTGCTCA) | 0.38
4 | GGGCGAACATGGACCGGTTTTCCCGGTAATCCGTATTTGGA (site GGGCGAACTTC) | 0.799
5 | GGGCGTCCATGGACCGGTTTTCCCGGTAATCCGTATTTGCA (site GGGCGTCCTTG) | 2.59
6 | GGGCGTCCATGGACCGGTTTTCCCGGTAATCCGTATTTGGT (site GGGCGTCCTAC) | 0
7 | GGGCTTGCATGGACCGGTTTTCCCGGTAATCCGTATTTGGA (site GGGCTTGCTTC) | 0.564
8 | GGGGAATCATGGACCGGTTTTCCCGGTAATCCGTATTTGGT (site GGGGAATCTAC) | 0.628
9 | GGGGAGGCATGGACCGGTTTTCCCGGTAATCCGTATTTGTG (site GAGGAGGCTCA) | 0
10 | GGGGAGGCATGGACCGGTTTTCCCGGTAATCCGTATTTGTG (site GCGGAGGCTCA) | 0.00803
11 | GGGGAGGCATGGACCGGTTTTCCCGGTAATCCGTATTTGTG (site GGGGAGGCTCA) | 0.851
12 | GGGGAGGCATGGACCGGTTTTCCCGGTAATCCGTATTTGTG (site GTGGAGGCTCA) | 0.134
13 | GGGGAGTCATGGACCGGTTTTCCCGGTAATCCGTATTTGCC (site AGGGAGTCTGG) | 1.14
14 | GGGGAGTCATGGACCGGTTTTCCCGGTAATCCGTATTTGCC (site CGGGAGTCTGG) | 0
15 | GGGGAGTCATGGACCGGTTTTCCCGGTAATCCGTATTTGCC (site GGGGAGTCTGG) | 1.78
16 | GGGGAGTCATGGACCGGTTTTCCCGGTAATCCGTATTTGCC (site TGGGAGTCTGG) | 1.02
17 | GGGGCACCATGGACCGGTTTTCCCGGTAATCCGTATTTGCG (site GGGGCACCTAG) | 0.0129
18 | GGGGCACCATGGACCGGTTTTCCCGGTAATCCGTATTTGCG (site GGGGCACCTCG) | 0.0566
19 | GGGGCACCATGGACCGGTTTTCCCGGTAATCCGTATTTGCG (site GGGGCACCTGG) | 0
20 | GGGGCACCATGGACCGGTTTTCCCGGTAATCCGTATTTGCG (site GGGGCACCTTG) | 0
21 | GGGGCACCATGGACCGGTTTTCCCGGTAATCCGTATTTGCT (site GGGGCACCTAG) | 0
22 | GGGGCACCATGGACCGGTTTTCCCGGTAATCCGTATTTGCT (site GGGGCACCTCG) | 0.0126
23 | GGGGCACCATGGACCGGTTTTCCCGGTAATCCGTATTTGCT (site GGGGCACCTGG) | 0
24 | GGGGCACCATGGACCGGTTTTCCCGGTAATCCGTATTTGCT (site GGGGCACCTTG) | 0
25 | GGGGCACCATGGACCGGTTTTCCCGGTAATCCGTATTTGGA (site GGGGCACCTTA) | 0
26 | GGGGCACCATGGACCGGTTTTCCCGGTAATCCGTATTTGGA (site GGGGCACCTTC) | 0.0209

Row | Sequence | recombinant UMI read abundance (log10)
27 | GGGGCACCATGGACCGGTTTTCCCGGTAATCCGTATTTGGA (site GGGGCACCTTG) | 0
28 | GGGGCACCATGGACCGGTTTTCCCGGTAATCCGTATTTGGA (site GGGGCACCTTT) | 0.0158
29 | GGGGCATCATGGACCGGTTTTCCCGGTAATCCGTATTTGCA (site GGGGCAACTTG) | 0
30 | GGGGCATCATGGACCGGTTTTCCCGGTAATCCGTATTTGCA (site GGGGCACCTTG) | 0
31 | GGGGCATCATGGACCGGTTTTCCCGGTAATCCGTATTTGCA (site GGGGCAGCTTG) | 0
32 | GGGGCATCATGGACCGGTTTTCCCGGTAATCCGTATTTGCA (site GGGGCATCTTG) | 2.13
33 | GGGGTTCCATGGACCGGTTTTCCCGGTAATCCGTATTTGAA (site GGGGTTCCTTT) | 0
34 | GGGTACTCATGGACCGGTTTTCCCGGTAATCCGTATTTGCT (site GGGTACTCTAG) | 3.34
35 | GGGTTCCCATGGACCGGTTTTCCCGGTAATCCGTATTTGTG (site AGGTTCCCTCA) | 0.00854
36 | GGGTTCCCATGGACCGGTTTTCCCGGTAATCCGTATTTGTG (site CGGTTCCCTCA) | 0.0144
37 | GGGTTCCCATGGACCGGTTTTCCCGGTAATCCGTATTTGTG (site GGGTTCCCTCA) | 0.00899
38 | GGGTTCCCATGGACCGGTTTTCCCGGTAATCCGTATTTGTG (site TGGTTCCCTCA) | 0.0194
39 | GGTAAACCATGGACCGGTTTTCCCGGTAATCCGTATTTGAT (site GGTAAACCTAT) | 0
40 | GGTAAGCCATGGACCGGTTTTCCCGGTAATCCGTATTTGGG (site GGTAAGCCTCC) | 0.023
41 | GGTACAACATGGACCGGTTTTCCCGGTAATCCGTATTTGTA (site GGTACAACTTA) | 0.0152
42 | GGTACAACATGGACCGGTTTTCCCGGTAATCCGTATTTGTA (site GGTCCAACTTA) | 0.00335
43 | GGTACAACATGGACCGGTTTTCCCGGTAATCCGTATTTGTA (site GGTGCAACTTA) | 0.0119
44 | GGTACAACATGGACCGGTTTTCCCGGTAATCCGTATTTGTA (site GGTTCAACTTA) | 0.0127
45 | GGTACGCCATGGACCGGTTTTCCCGGTAATCCGTATTTGTT (site GGTACGACTAA) | 0.0526
46 | GGTACGCCATGGACCGGTTTTCCCGGTAATCCGTATTTGTT (site GGTACGCCTAA) | 0.0149
47 | GGTACGCCATGGACCGGTTTTCCCGGTAATCCGTATTTGTT (site GGTACGGCTAA) | 0.0123
48 | GGTACGCCATGGACCGGTTTTCCCGGTAATCCGTATTTGTT (site GGTACGTCTAA) | 0.426
49 | GGTACGTCATGGACCGGTTTTCCCGGTAATCCGTATTTGAT (site GGTACGTCTAA) | 0.0132
50 | GGTACGTCATGGACCGGTTTTCCCGGTAATCCGTATTTGAT (site GGTACGTCTAC) | 0.00659
51 | GGTACGTCATGGACCGGTTTTCCCGGTAATCCGTATTTGAT (site GGTACGTCTAG) | 0
52 | GGTACGTCATGGACCGGTTTTCCCGGTAATCCGTATTTGAT (site GGTACGTCTAT) | 0.46
